Assay results reported in article PMC7064328 (Environmental Health Perspectives, 2020).

System: maternal liver
Test: Maternal liver histopathology (H&E)
Type: in vivo, mouse (CD-1)
Settings: for CA, any severity: % / CA, any severity: N / CA, marked: % / CA, marked: N / CA, minimal to mild: % / CA, minimal to mild: N / CA, moderate: % / CA, moderate: N / Focal regions of classic necrosis: % / Focal regions of classic necrosis: N / Increase in cell death: % / Increase in cell death: N / Increase in mitotic figures: % / Increase in mitotic figures: N / Vacuolation, any severity: % / Vacuolation, any severity: N / Vacuolation, mild: % / Vacuolation, mild: N / Vacuolation, minimal: % / Vacuolation, minimal: N / Vacuolation, moderate: % / Vacuolation, moderate: N: maternal liver
Excerpt: From each uterus, first, viable embryos and their matched placentas were collected in succession within a horn and immediately snap frozen ( n=2–5 per litter ), and subsequent embryos were collected for growth measurements ( n=2–11 per litter ). Additional placentas were collected and placed in 4% paraformaldehyde (PFA) for histological analysis (Block 2 only). Amniotic fluid was collected by needle aspiration from litters euthanized at E11.5 and snap frozen in liquid nitrogen. Embryo livers were collected from litters euthanized at E17.5 and snap frozen in liquid nitrogen. Dam livers were weighed, a portion of the left lateral lobe was placed in 4% PFA for histology, and another portion of the same lobe was snap frozen in liquid nitrogen. A third liver section was obtained from Block 2 dams and fixed in McDowell and Trump’s fixative for electron microscopy (EM). Gross lesions were collected when observed and placed in 4% PFA for histology. Dam kidneys were removed, a cross section was prepared from the right kidney, a longitudinal section was prepared from the left kidney, and both sections were fixed in 4% PFA for histological analysis.
Dam livers, kidneys, and placentas were trimmed and embedded by the NIEHS Mouse Embryo Phenotyping Core. Tissues collected at necropsy were fixed in 4% PFA for 72 h and paraffin embedded, and 5-μm sections were prepared and stained with hematoxylin and eosin (H&E). Pathology was evaluated and a pathology review conducted by S.A.E. Diplomate American College of Veterinary Pathologists (DACVP). Pathology reviews were conducted as an informed approach analysis [e.g., nonblinded analysis; see Sills et al. ([2019])]. Select tissue slides were scanned using the AT2 Scanner (Aperio). Images were then captured for publication using the ImageScope software; version 12.3.0.5056 (Aperio). Serum and urine obtained from dams in Block 2 were analyzed using the AU480 clinical chemistry analyzer (Beckman Coulter Inc.). Reagents and calibration standards used to measure alkaline phosphatase (ALP), alanine aminotransferase (ALT), aspartate aminotransferase (AST), blood urea nitrogen (BUN), serum creatinine, urine creatinine, glucose (Glu), total protein (TP), triglyceride (Trig), high-density lipoprotein (HDL), cholesterol (Chol), and albumin (ALB) were purchased from Beckman Coulter Inc. Reagents for sorbitol dehydrogenase (SDH), total bile acid (TBA), and micro-TP were purchased from Sekisui Diagnostics. The reagent used to measure low-density lipoprotein (LDL) was purchased form Diazyme Laboratories.

O=C(O)C(F)(F)C(F)(F)C(F)(F)C(F)(F)C(F)(F)C(F)(F)C(F)(F)F [PFOA, Perfluorooctanoic acid]
0%: CA, marked: % (E11.5, 1 mg/kg/d) | CA, moderate: % (E11.5, 1 mg/kg/d) | Focal regions of classic necrosis: % (E11.5, 1 mg/kg/d) | Vacuolation, any severity: % (E11.5, 1 mg/kg/d) | Vacuolation, mild: % (E11.5, 1 mg/kg/d) | Vacuolation, minimal: % (E11.5, 1 mg/kg/d) | Vacuolation, moderate: % (E11.5, 1 mg/kg/d) | CA, minimal to mild: % (E11.5, 5 mg/kg/d) | CA, moderate: % (E11.5, 5 mg/kg/d) | Vacuolation, minimal: % (E11.5, 5 mg/kg/d) | Vacuolation, moderate: % (E11.5, 5 mg/kg/d) | CA, marked: % (E17.5, 1 mg/kg/d) | CA, minimal to mild: % (E17.5, 1 mg/kg/d) | Focal regions of classic necrosis: % (E17.5, 1 mg/kg/d) | Increase in mitotic figures: % (E17.5, 1 mg/kg/d) | Vacuolation, any severity: % (E17.5, 1 mg/kg/d) | Vacuolation, mild: % (E17.5, 1 mg/kg/d) | Vacuolation, minimal: % (E17.5, 1 mg/kg/d) | Vacuolation, moderate: % (E17.5, 1 mg/kg/d) | CA, minimal to mild: % (E17.5, 5 mg/kg/d) | CA, moderate: % (E17.5, 5 mg/kg/d) | Focal regions of classic necrosis: % (E17.5, 5 mg/kg/d) | Increase in mitotic figures: % (E17.5, 5 mg/kg/d) | Vacuolation, mild: % (E17.5, 5 mg/kg/d) | Vacuolation, minimal: % (E17.5, 5 mg/kg/d)
40%: Increase in mitotic figures: % (E11.5, 1 mg/kg/d) | Focal regions of classic necrosis: % (E11.5, 5 mg/kg/d)
2: Increase in mitotic figures: N (E11.5, 1 mg/kg/d) | Focal regions of classic necrosis: N (E11.5, 5 mg/kg/d)
20%: Increase in cell death: % (E11.5, 1 mg/kg/d)
5: CA, any severity: N (E11.5, 1 mg/kg/d) | CA, minimal to mild: N (E11.5, 1 mg/kg/d) | CA, any severity: N (E11.5, 5 mg/kg/d) | CA, marked: N (E11.5, 5 mg/kg/d) | Increase in mitotic figures: N (E11.5, 5 mg/kg/d) | Vacuolation, any severity: N (E11.5, 5 mg/kg/d) | Vacuolation, mild: N (E11.5, 5 mg/kg/d) | CA, any severity: N (E17.5, 1 mg/kg/d) | CA, moderate: N (E17.5, 1 mg/kg/d) | Increase in cell death: N (E17.5, 1 mg/kg/d)
60%: Increase in cell death: % (E11.5, 5 mg/kg/d)
3: Increase in cell death: N (E11.5, 5 mg/kg/d)
1: Increase in cell death: N (E11.5, 1 mg/kg/d)
6: CA, any severity: N (E17.5, 5 mg/kg/d) | CA, marked: N (E17.5, 5 mg/kg/d) | Increase in cell death: N (E17.5, 5 mg/kg/d) | Vacuolation, any severity: N (E17.5, 5 mg/kg/d) | Vacuolation, moderate: N (E17.5, 5 mg/kg/d)
100%: Incidence of livers with adverse outcomes including cytoplasmic alteration (all dose groups, E11.5 and E17.5) | CA, any severity: % (E11.5, 1 mg/kg/d) | CA, minimal to mild: % (E11.5, 1 mg/kg/d) | CA, any severity: % (E11.5, 5 mg/kg/d) | CA, marked: % (E11.5, 5 mg/kg/d) | Increase in mitotic figures: % (E11.5, 5 mg/kg/d) | Vacuolation, any severity: % (E11.5, 5 mg/kg/d) | Vacuolation, mild: % (E11.5, 5 mg/kg/d) | CA, any severity: % (E17.5, 1 mg/kg/d) | CA, moderate: % (E17.5, 1 mg/kg/d) | Increase in cell death: % (E17.5, 1 mg/kg/d) | CA, any severity: % (E17.5, 5 mg/kg/d) | CA, marked: % (E17.5, 5 mg/kg/d) | Increase in cell death: % (E17.5, 5 mg/kg/d) | Vacuolation, any severity: % (E17.5, 5 mg/kg/d) | Vacuolation, moderate: % (E17.5, 5 mg/kg/d)
0: CA, marked: N (E11.5, 1 mg/kg/d) | CA, moderate: N (E11.5, 1 mg/kg/d) | Focal regions of classic necrosis: N (E11.5, 1 mg/kg/d) | Vacuolation, any severity: N (E11.5, 1 mg/kg/d) | Vacuolation, mild: N (E11.5, 1 mg/kg/d) | Vacuolation, minimal: N (E11.5, 1 mg/kg/d) | Vacuolation, moderate: N (E11.5, 1 mg/kg/d) | CA, minimal to mild: N (E11.5, 5 mg/kg/d) | CA, moderate: N (E11.5, 5 mg/kg/d) | Vacuolation, minimal: N (E11.5, 5 mg/kg/d) | Vacuolation, moderate: N (E11.5, 5 mg/kg/d) | CA, marked: N (E17.5, 1 mg/kg/d) | CA, minimal to mild: N (E17.5, 1 mg/kg/d) | Focal regions of classic necrosis: N (E17.5, 1 mg/kg/d) | Increase in mitotic figures: N (E17.5, 1 mg/kg/d) | Vacuolation, any severity: N (E17.5, 1 mg/kg/d) | Vacuolation, mild: N (E17.5, 1 mg/kg/d) | Vacuolation, minimal: N (E17.5, 1 mg/kg/d) | Vacuolation, moderate: N (E17.5, 1 mg/kg/d) | CA, minimal to mild: N (E17.5, 5 mg/kg/d) | CA, moderate: N (E17.5, 5 mg/kg/d) | Focal regions of classic necrosis: N (E17.5, 5 mg/kg/d) | Increase in mitotic figures: N (E17.5, 5 mg/kg/d) | Vacuolation, mild: N (E17.5, 5 mg/kg/d) | Vacuolation, minimal: N (E17.5, 5 mg/kg/d)
